Our source for the pest or weed control values is patent US8895761B2, “4-phenylpyrane-3,5-diones, 4-phenylthiopyrane-3,5-diones and 2-phenylcyclohexane-1,3,5-triones as herbicides” (Syngenta Limited, priority 2007, dated 2014).

Each structure is given as a SMILES string.

Assay type in all cases: in vivo
Experiment [1] concerns Echinochloa crus-galli (ECHCG). The experiment is described as follows: Pre-emergence herbicidal glasshouse test, Echinochloa crus-galli. The following applies: Echinochloa crus-galli, 312 h, rate 250 g/ha, evaluated after 13 days, scale 100 = total damage to plant, 0 = no damage. On the procedure: (§1) Seeds of a variety of test species were sown in standard soil in pots. After cultivation for one day (pre-emergence) or after 8 days cultivation (post-emergence) under controlled conditions in a glasshouse (at 24/16° C., day/night; 14 hours light; 65% humidity), the plants were sprayed with an aqueous spray solution derived from the formulation of the technical active ingredient in acetone/water (50:50) solution containing 0.5% Tween 20 (polyoxyethelyene sorbitan monolaurate, CAS RN 9005-64-5). The test plants were then grown in a glasshouse under controlled conditions in a glasshouse (at 24/16° C., day/night; 14 hours light; 65% humidity) and watered twice daily. After 13 days for pre and post-emergence, the test was evaluated ([…] to plant; 0=no damage to plant).
(§2) Setaria faberi (SETFA), Lolium perenne (LOLPE), Alopecurus myosuroides (ALOMY), Echinochloa crus-galli (ECHCG) and Avena fatua (AVEFA).

Experiment [2] relates to Alopecurus myosuroides (ALOMY). As to the kind of experiment: Pre-emergence herbicidal glasshouse test, Alopecurus myosuroides. To be noted: Alopecurus myosuroides, 312 h, rate 250 g/ha, evaluated after 13 days, scale 100 = total damage to plant, 0 = no damage. On the procedure:
as §1, §2

The subject of experiment [3] is Alopecurus myosuroides (ALOMY). As to the kind of experiment: Post-emergence herbicidal glasshouse test, Alopecurus myosuroides. To be noted: Alopecurus myosuroides, 312 h, rate 250 g/ha, evaluated after 13 days, scale 100 = total damage to plant, 0 = no damage. On the procedure: as §1, §2
The subject of experiment [4] is Lolium perenne (LOLPE). As to the kind of experiment: Pre-emergence herbicidal glasshouse test, Lolium perenne. The following applies: 312 h, rate 250 g/ha, evaluated after 13 days, scale 100 = total damage to plant, 0 = no damage. On the procedure: as §1, §2
Experiment [5] relates to Avena fatua (AVEFA). The experiment is described as follows: Post-emergence herbicidal glasshouse test, Avena fatua. The following applies: Avena fatua, 312 h, rate 250 g/ha, evaluated after 13 days, scale 100 = total damage to plant, 0 = no damage. On the procedure: as §1, §2
Experiment [6] has as its system Avena fatua (AVEFA). As to the kind of experiment: Pre-emergence herbicidal glasshouse test, Avena fatua. To be noted: Avena fatua, 312 h, rate 250 g/ha, evaluated after 13 days, scale 100 = total damage to plant, 0 = no damage. On the procedure: as §1, §2
Experiment [7] concerns Echinochloa crus-galli (ECHCG). As to the kind of experiment: Post-emergence herbicidal glasshouse test, Echinochloa crus-galli. To be noted: Echinochloa crus-galli, 312 h, rate 250 g/ha, evaluated after 13 days, scale 100 = total damage to plant, 0 = no damage. As to the method: as §1, §2
The subject of experiment [8] is Lolium perenne (LOLPE). The experiment is described as follows: Post-emergence herbicidal glasshouse test, Lolium perenne. To be noted: 312 h, rate 250 g/ha, evaluated after 13 days, scale 100 = total damage to plant, 0 = no damage. On the procedure: as §1, §2

As a reminder, the pest or weed control is the degree to which the test organism was suppressed or injured, in per cent. A low value points to a weak effect. With `CCc1cc(-c2ccc(F)c(OC)c2)ccc1C1=C(O)C(C)(C)SC(C)(C)C1=O` [Compound B-4], the pest or weed control at 250 g/ha came out at 0% in experiment [1]; 0% in experiment [2]; 40% in experiment [3]; 0% in experiment [4]; 80% in experiment [5]; 0% in experiment [6]. In addition, the pest or weed control at 250 g/ha is 60% in experiment [7] and 50% in experiment [8].

Take `CCc1cc(-c2ccc(F)cc2)ccc1C1=C(OC(=O)C(C)(C)C)C(C)OC(C)(C)C1=O` [Compound D-9]: the pest or weed control at 250 g/ha in experiment [1] is 50%; in experiment [2], 60%; in experiment [3], 70%; in experiment [4], 90%; in experiment [5] it was 10%; in experiment [6] it was 0%. Moreover, the pest or weed control at 250 g/ha in experiment [7] and in experiment [8] was 80% each time.

Regarding `CCc1cc(-c2ccc(F)c(Cl)c2)ccc1C1=C(O)C(C)(C)OC(C)(C)C1=O` [Compound A-76], the pest or weed control at 250 g/ha in experiment [1] was found to be 0%; in experiment [2], 0%; in experiment [3], 80%; in experiment [4] it was 0%; in experiment [5], 40%; in experiment [6], 0%. Further, the pest or weed control at 250 g/ha is 70% in experiment [7] and 80% in experiment [8].

On to `CCc1cc(-c2ccc(Cl)cc2)ccc1C1=C(O)C(C)(C)OC(C)(C)C1=O` [Compound A-35], for which the pest or weed control at 250 g/ha was determined as 90% in experiment [1]; 50% in experiment [2]; 100% in experiment [3]; 80% in experiment [4]; 80% in experiment [5]; 40% in experiment [6]. Further, the pest or weed control at 250 g/ha in experiment [7] is 100%; in experiment [8], 90%.

As for `CCc1cc(-c2ccc(Cl)s2)ccc1C1=C(O)C(C)(C)OC(C)(C)C1=O` [Compound A-41], the pest or weed control at 250 g/ha in experiment [1] was determined as 0%; in experiment [2], 0%; in experiment [3], 50%; in experiment [4] it was 20%; in experiment [5] it was 0%; in experiment [6] it was 30%. Besides, the figures for the pest or weed control at 250 g/ha in experiment [7] and in experiment [8] were 70% and 60%, respectively.

Consider `CCc1cc(-c2ccc(F)c(OC)c2)ccc1C1=C(O)C(C)(CC)OC(C)(CC)C1=O` (stereo not shown) [Compound A-128], for which the pest or weed control at 250 g/ha in experiment [1] is 40%; in experiment [2] it was 10%; in experiment [3], 60%; in experiment [4] it was 20%; in experiment [5], 70%; in experiment [6] it was 0%. Further, the pest or weed control at 250 g/ha came to 80% in experiment [7] and 60% in experiment [8].

For the compound `CC1(C)OC(C)(C)C(O)=C(c2ccc(-c3ccc(F)cc3)cc2Cl)C1=O` [Compound A-134], the pest or weed control at 250 g/ha in experiment [1] amounted to 80%; in experiment [2], 40%; in experiment [3], 70%; in experiment [4] it was 30%; in experiment [5] it was 20%; in experiment [6] it was 0%. Moreover, the pest or weed control at 250 g/ha in experiment [7] came to 100%; in experiment [8], 50%.

As for `CCc1cc(-c2ccc(F)c(F)c2)ccc1C1=C(O)C(C)(C)SC(C)(C)C1=O` [Compound B-5], the pest or weed control at 250 g/ha is 0% in experiment [1]; 50% in experiment [2]; 70% in experiment [3]; 30% in experiment [4]; 70% in experiment [5]; 20% in experiment [6]. Besides, the pest or weed control at 250 g/ha in experiment [7] and in experiment [8] was 60% each time.

As for `CCc1cc(-c2cc(Cl)ccc2OC)ccc1C1=C(O)C(C)(C)C(=O)C(C)(C)C1=O` [Compound C-6], the pest or weed control at 250 g/ha in experiment [1] stood at 0%; in experiment [2], 40%; in experiment [3], 20%; in experiment [4], 70%; in experiment [5], 10%; in experiment [6] it was 10%. The pest or weed control at 250 g/ha was found to be 50% in experiment [7] and 20% in experiment [8].

In the case of `CCc1cc(-c2ccc(F)cc2)ccc1C1=C(O)C(C)OC(C)(C)C1=O` (stereo not shown) [Compound A-105], the pest or weed control at 250 g/ha in experiment [1] was determined as 20%; in experiment [2] it was 40%; in experiment [3], 80%; in experiment [4], 40%; in experiment [5], 30%; in experiment [6], 0%. For the same compound, the pest or weed control at 250 g/ha in experiment [7] and in experiment [8] was 90% throughout.

As for `CCc1cc(-c2ccc(Cl)c(C)c2)ccc1C1=C(O)C(C)(C)OC(C)(C)C1=O` [Compound A-52], the pest or weed control at 250 g/ha was 20% in experiment [1]; 0% in experiment [2]; 40% in experiment [3]; 0% in experiment [4]; 20% in experiment [5]; 0% in experiment [6]. Also, the pest or weed control at 250 g/ha amounted to 70% in experiment [7] and 40% in experiment [8].

Turning to `CCc1cc(-c2cc(F)c(F)c(F)c2)ccc1C1=C(O)C(C)(C)S(=O)(=O)C(C)(C)C1=O` [Compound B-18], the pest or weed control at 250 g/ha in experiment [1] stood at 30%; in experiment [2], 30%; in experiment [3], 70%; in experiment [4], 50%; in experiment [5], 90%; in experiment [6] it was 30%. The pest or weed control at 250 g/ha in experiment [7] and in experiment [8] was 80% each time.

With `CCc1cc(-c2ccc(C(F)(F)F)cc2)ccc1C1=C(O)C(C)(C)OC(C)(C)C1=O` [Compound A-70], the pest or weed control at 250 g/ha was 0% in experiment [1]; 0% in experiment [2]; 40% in experiment [3]; 0% in experiment [4]; 0% in experiment [5]; 0% in experiment [6]. For the same compound, the pest or weed control at 250 g/ha was 80% in experiment [7] and 50% in experiment [8].

For `Cc1cc(-c2ccc(Cl)cc2F)cc(C)c1C1=C(O)[C@@]2(C)CC[C@H](O2)C1=O` (racemic) [Compound A-53], the pest or weed control at 250 g/ha in experiment [1] came out at 100%; in experiment [2] it was 50%; in experiment [3], 90%; in experiment [4] it was 90%; in experiment [5], 80%; in experiment [6] it was 60%. The pest or weed control at 250 g/ha in experiment [7] and in experiment [8] was 100% in each case.

For `CCc1cc(-c2ccc(Cl)cc2Cl)ccc1C1=C(O)C(C)(C)OC(C)(C)C1=O` [Compound A-36], the pest or weed control at 250 g/ha turned out to be 0% in experiment [1]; 0% in experiment [2]; 30% in experiment [3]; 0% in experiment [4]; 20% in experiment [5]; 0% in experiment [6]. In addition, the results for the pest or weed control at 250 g/ha in experiment [7] and in experiment [8] were 60% and 40%, respectively.

In the case of `CCc1cc(-c2cc(F)c(F)c(F)c2)ccc1C1=C(O)C(C)(C)SC(C)(C)C1=O` [Compound B-6], the pest or weed control at 250 g/ha came out at 0% in experiment [1]; 50% in experiment [2]; 90% in experiment [3]; 50% in experiment [4]; 90% in experiment [5]; 0% in experiment [6]. For the same compound, the pest or weed control at 250 g/ha in experiment [7] and in experiment [8] was 80% throughout.

Take `CCc1cc(-c2ccc(F)c(OC)c2)ccc1C1=C(O)C(C)(C)C(=O)C(C)(C)C1=O` [Compound C-3]: the pest or weed control at 250 g/ha came out at 10% in experiment [1]; 10% in experiment [2]; 30% in experiment [3]; 10% in experiment [4]; 50% in experiment [5]; 0% in experiment [6]. In addition, the pest or weed control at 250 g/ha in experiment [7] is 70%; in experiment [8], 60%.
